The values that follow come from patent publication US7998989B2, “2-Imino-1,3-thiazoline-based compounds and T-type calcium channel inhibitors containing the same” (Korea Institute of Science and Technology, priority 2007, dated 2011).

Where two headings read alike, the source gives them in different places.

For series [1], the target named is T1, α1G T-type calcium channel (Homo sapiens, UniProt O43497).
T1 construct: host or cells: HEK293
Briefly: Assay for % inhibiting activity against T-type calcium channel using FDSS6000 (fluo-3 calcium imaging, KCl activation). Format: cell-based. As to the method: In the present invention, in order to examine an efficient inhibitor against the T-type calcium channel, a primary assay for T-type calcium channel inhibiting activity was conducted by a high-efficient assay using FDSS6000, wherein mammal HEK293 cell lines (originated from human kidney carcinoma cells) that specifically express α1G of the T-type calcium channel was used for primary assay. Through the primary assay, compounds that show meaningful inhibition effects were selected. The selected compounds were used in a second assay for T-type calcium channel inhibiting activity using an electrophysiological whole cell patch clamp method, wherein mammal HEK293 cell lines (originated from human kidney carcinoma cells) that specifically express α1G of the T-type calcium channel was used for the second assay. Mibefradil, which had been developed as a T-type calcium channel inhibitor, was used as a reference.
At 12-24 hours before being used for this assay, cells of HEK293 cell line (α1G cell line: KCTC 10519BP, Korean Collection for Type Cultures), which stably express α1G T-type calcium channel and Kir2.1, were sub-cultured in a poly-L-lysine treated 96-well plate with the density of 4×10^4 per well using a 96-well cell dispenser (Titertek). On the day of assay, the 96-well plate to which the cells were attached was washed three times with HEPES buffer solution (150 mM of NaCl, 5 mM of KCl, 1 mM of MgCl2, 2 mM of CaCl2, 10 mM of HEPES, 10 mM of glucose; pH 7.4) using a 96-well plate automatic washing device (Bio Tek), then reacted with HEPES buffer solution containing 5 μM fluo-3/AM and 0.001% Pluronic F-127 at room temperature for 1 hour, to label with fluorescent dye, and then further washed two times with HEPES buffer solution.
Thereafter, at 10 minutes before the measurement using device FDSS6000, washing with HEPES buffer solution containing 10 mM CaCl2 was conducted once more, and the final volume was adjusted to 81 μl. Besides the above 96-well plate containing the cells, two additional drug 96-well plates were provided, wherein the 96-well plates contained an inhibiting drug and KCl (final concentration: 75 mM) for activating the T-type calcium channel, respectively. Since most of cell-based HTS devices are equipped with a liquid application system for injection of drug, but have no liquid sucking system, the inhibiting drug to be tested and KCl were respectively provided at a five-times higher concentration in 10 mM CaCl2 HEPES buffer solution at the amount of 27 μl, diluted by five-times at the final cell plate volume of 135 μl, and then used in this test. The concrete method of measurement using FDSS6000 was as follows. After recording the reference value of 20 seconds, the change of intracellular Ca^2+ concentration that was induced by treatment of the inhibiting drug to be tested for 75 seconds followed by administration of KCl was measured, wherein the percentage (%) inhibition effect of the test drug, through estimating the area of ratio value of 340/380 in the control without treatment of the test drug, was 100%. As a reference drug, 10 μM mibefradil was used.
For accurate calcium imaging, the light source of 4 xenon lamps in FDSS6000 were radiated to selectively expose the cells to the excitation wavelength (340 nm and 380 nm) by a computer-controlled filter wheel. Data was obtained at intervals of 1.23 seconds. The emitter fluorescence light inflowed through a long-pass filter was obtained as an average 340/380 ratio value for each well in the 96-wells by using a CCD camera and a digital fluorescence analyzer in FDSS6000. All image data and analyses were obtained by using a FDSS6000-exclusive program from Hamamatsu Photonics.
The obtained results are shown in Table 2 (the results from the compounds according to the examples of the present invention) and Table 3 (the results from the compounds according to the comparative example where R6 is a phenyl group) [FDSS (% inhibition) 10 μM].

Where [2] appears, read: HEK293, 10 μM, HEK293 cells stably expressing α1G T-type calcium channel and Kir2.1, compounds of the examples, read-out: FDSS (% inhibition)/10uM.

T1 sequence (O43497 whole entry): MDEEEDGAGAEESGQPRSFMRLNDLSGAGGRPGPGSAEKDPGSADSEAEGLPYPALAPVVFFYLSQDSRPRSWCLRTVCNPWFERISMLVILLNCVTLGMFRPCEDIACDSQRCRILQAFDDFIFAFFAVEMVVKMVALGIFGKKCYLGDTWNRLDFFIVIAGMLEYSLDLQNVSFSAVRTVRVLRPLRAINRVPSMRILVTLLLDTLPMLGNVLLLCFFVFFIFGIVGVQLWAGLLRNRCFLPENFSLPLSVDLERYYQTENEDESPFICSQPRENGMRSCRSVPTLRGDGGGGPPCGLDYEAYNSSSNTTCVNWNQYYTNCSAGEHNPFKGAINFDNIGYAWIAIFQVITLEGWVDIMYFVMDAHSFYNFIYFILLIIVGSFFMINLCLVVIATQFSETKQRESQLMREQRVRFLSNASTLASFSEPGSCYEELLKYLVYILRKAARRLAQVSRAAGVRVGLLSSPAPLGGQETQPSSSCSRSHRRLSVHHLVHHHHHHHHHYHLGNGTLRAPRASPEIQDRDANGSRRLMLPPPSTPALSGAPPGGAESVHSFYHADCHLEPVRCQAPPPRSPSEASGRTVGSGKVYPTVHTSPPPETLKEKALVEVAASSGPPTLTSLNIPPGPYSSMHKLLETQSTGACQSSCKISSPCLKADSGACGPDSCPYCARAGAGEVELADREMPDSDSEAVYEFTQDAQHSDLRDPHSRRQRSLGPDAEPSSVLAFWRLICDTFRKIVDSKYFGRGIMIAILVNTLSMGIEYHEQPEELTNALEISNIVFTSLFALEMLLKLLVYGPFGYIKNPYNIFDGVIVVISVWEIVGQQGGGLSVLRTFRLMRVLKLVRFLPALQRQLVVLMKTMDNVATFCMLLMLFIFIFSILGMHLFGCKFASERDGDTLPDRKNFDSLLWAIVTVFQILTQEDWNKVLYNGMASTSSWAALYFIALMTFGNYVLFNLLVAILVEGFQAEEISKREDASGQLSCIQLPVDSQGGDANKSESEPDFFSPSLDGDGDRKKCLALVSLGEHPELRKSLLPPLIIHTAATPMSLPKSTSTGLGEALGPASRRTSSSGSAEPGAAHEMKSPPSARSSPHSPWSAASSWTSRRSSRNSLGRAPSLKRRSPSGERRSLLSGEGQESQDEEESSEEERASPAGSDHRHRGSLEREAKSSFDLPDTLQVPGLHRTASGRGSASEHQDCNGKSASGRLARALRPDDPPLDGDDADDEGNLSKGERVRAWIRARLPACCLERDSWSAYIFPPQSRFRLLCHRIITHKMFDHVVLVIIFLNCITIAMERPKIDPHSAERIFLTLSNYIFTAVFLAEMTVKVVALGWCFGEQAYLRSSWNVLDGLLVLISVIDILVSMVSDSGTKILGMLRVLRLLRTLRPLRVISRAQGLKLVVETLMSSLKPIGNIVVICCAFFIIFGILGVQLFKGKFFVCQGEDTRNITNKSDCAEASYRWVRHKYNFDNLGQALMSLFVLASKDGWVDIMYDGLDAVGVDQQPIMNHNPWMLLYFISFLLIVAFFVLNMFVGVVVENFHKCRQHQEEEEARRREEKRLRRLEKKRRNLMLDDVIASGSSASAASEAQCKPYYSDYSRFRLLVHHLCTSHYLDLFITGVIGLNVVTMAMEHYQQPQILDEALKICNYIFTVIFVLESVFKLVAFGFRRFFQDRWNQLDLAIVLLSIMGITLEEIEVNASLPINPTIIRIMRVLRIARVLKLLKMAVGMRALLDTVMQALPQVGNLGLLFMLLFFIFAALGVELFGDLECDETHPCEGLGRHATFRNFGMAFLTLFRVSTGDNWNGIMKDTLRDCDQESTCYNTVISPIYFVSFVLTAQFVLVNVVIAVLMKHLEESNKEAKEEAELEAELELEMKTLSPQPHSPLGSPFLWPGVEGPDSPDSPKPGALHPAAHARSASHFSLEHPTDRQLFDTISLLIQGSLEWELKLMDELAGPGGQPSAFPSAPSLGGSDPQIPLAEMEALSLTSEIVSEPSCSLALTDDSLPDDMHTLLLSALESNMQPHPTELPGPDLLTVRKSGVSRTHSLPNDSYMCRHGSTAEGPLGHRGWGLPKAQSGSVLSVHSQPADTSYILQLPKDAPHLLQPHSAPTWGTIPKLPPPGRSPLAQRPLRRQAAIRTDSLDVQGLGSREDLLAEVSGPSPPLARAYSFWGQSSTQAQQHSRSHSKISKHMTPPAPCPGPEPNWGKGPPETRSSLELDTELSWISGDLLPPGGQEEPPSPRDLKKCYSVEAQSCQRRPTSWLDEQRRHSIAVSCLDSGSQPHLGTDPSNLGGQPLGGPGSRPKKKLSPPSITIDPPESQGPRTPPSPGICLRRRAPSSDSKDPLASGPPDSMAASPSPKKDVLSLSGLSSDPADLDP

Turning to `CCN1C(=NC23CC4CC(CC(C4)C2)C3)SCC1CC(=O)Nc1ccc(C(C)C)cc1.Cl` (centres unmarked) [KHG24819, [2-(1-adamantylimino)-3-ethyl-1,3-thiazolidine-4-yl]-N-(4-isopropylphenyl)-acetamide hydrochloride], the melting point (in general, the temperature of the solid-liquid transition) turned out to be 158 °C. Also, in series [1] (setting [2]), the inhibition at 10 µM was 69.2%.

`Cl.O=C(CC1CSC(=NC2CCCCC2)N1C1CC1)Nc1ccc(Oc2ccccc2)cc1` (centres unmarked) [KHG24315, (2-cyclohexylimino-3-cyclopropyl-1,3-thiazolidine-4-yl)-N-(4-phenoxyphenyl)-acetamide hydrochloride] registered a melting point of 195 °C. The inhibition at 10 µM in series [1] (setting [2]) was 60.8%.

As to `CC(C)c1ccc(NC(=O)CC2CSC(=NCCc3ccccc3)N2C)cc1.Cl` (centres unmarked) [KHG24220, (2-phenethylimino-3-methyl-1,3-thiazolidine-4-yl)-N-(4-isopropylphenyl)-acetamide hydrochloride], the melting point came out at 225 °C. In addition, in series [1] (setting [2]), the inhibition at 10 µM is 40.8%.

`CN1C(=NCC2CCCCC2)SCC1CC(=O)Nc1cc([N+](=O)[O-])ccc1F.Cl` (centres unmarked) [KHG24234, (2-cyclohexylmethylimino-3-methyl-1,3-thiazolidine-4-yl)-N-(2-fluoro-5-nitrophenyl)-acetamide hydrochloride] displayed a melting point of 225 °C. Moreover, the inhibition at 10 µM in series [1] (setting [2]) was 45.4%.

The compound `CCCCc1ccc(NC(=O)CC2CSC(=NC3CCCCC3)N2C2CC2)cc1.Cl` (centres unmarked) [KHG24270, [2-cyclohexylimino-3-cyclopropyl-1,3-thiazolidine-4-yl]-N-(4-n-butylphenyl)-acetamide hydrochloride] showed a melting point of 195.6 °C. Moreover, the inhibition at 10 µM in series [1] (setting [2]) was found to be 62.6%.

Turning to `COc1ccc(NC(=O)CC2CSC(=NC34CC5CC(CC(C5)C3)C4)N2C)cc1.Cl` (centres unmarked) [KHG24419, [2-(1-adamantyl)imino-3-methyl-1,3-thiazolidine-4-yl]-N-(4-methoxyphenyl)-acetamide hydrochloride], the melting point lay within 227 to 229 °C. Moreover, the inhibition at 10 µM in series [1] (setting [2]) came to 46.7%.

In the case of `CC1SC(=NC2CCCCC2)N(C)C1CC(=O)Nc1ccc(Cl)cc1` (centres unmarked) [KHG24480, (2-cyclohexylimino-3,5-dimethyl-1,3-thiazolidine-4-yl)-N-(4-chlorophenyl)-acetamide], the melting point lay within 262 to 264 °C. In addition, the inhibition at 10 µM in series [1] (setting [2]) is 51.6%.

The compound `CCCN1C(=NC23CC4CC(CC(C4)C2)C3)SCC1CC(=O)Nc1ccc(C)cc1Cl.Cl` (centres unmarked) [KHG24818, [2-(1-adamantylimino)-3-n-propyl-1,3-thiazolidine-4-yl]-N-(2-chloro-4-methylphenyl)-acetamide hydrochloride] had a melting point of 201 °C. For the same compound, in series [1] (setting [2]), the inhibition at 10 µM worked out at 68.2%.

`CCCN1C(=NC23CC4CC(CC(C4)C2)C3)SCC1CC(=O)Nc1ccc(C)cc1.Cl` (centres unmarked) [KHG24813, [2-(1-adamantylimino)-3-n-propyl-1,3-thiazolidine-4-yl]-N-(4-methylphenyl)-acetamide hydrochloride]: the melting point is 239 °C. The inhibition at 10 µM in series [1] (setting [2]) was 61.6%.

Compound `Cl.O=C(CC1CSC(=NC2CCCCC2)N1C1CCCCC1)NCc1ccccc1C(F)(F)F` (centres unmarked) [KHG24547, (2-cyclohexylimino-3-cyclohexyl-1,3-thiazolidine-4-yl)-N-(2-trifluoromethylbenzyl)-acetamide hydrochloride] gave a melting point of 180 °C. The inhibition at 10 µM in series [1] (setting [2]) was found to be 51.1%.

On to `CC1SC(=NC2CCCCC2)N(C)C1CC(=O)Nc1cc(Cl)cc(Cl)c1` (centres unmarked) [KHG24483, (2-cyclohexylimino-3,5-dimethyl-1,3-thiazolidine-4-yl)-N-(3,5-dichlorophenyl)-acetamide], for which the melting point lay in the range of 264 to 265 °C. For the same compound, the inhibition at 10 µM in series [1] (setting [2]) was determined as 52.5%.

`CCN1C(=NC2CCCCC2)SCC1CC(=O)Nc1ccc(C(F)(F)F)cc1.Cl` (centres unmarked) [KHG24280, [2-cyclohexylimino-3-ethyl-1,3-thiazolidine-4-yl]-N-(4-trifluoromethylphenyl)-acetamide hydrochloride] registered a melting point of 191 °C. Besides, in series [1] (setting [2]), the inhibition at 10 µM turned out to be 54%.

`CCCN1C(=NC2CCCCC2)SCC1CC(=O)Nc1ccc(Cl)cc1.Cl` (centres unmarked) [KHG24287, [2-cyclohexylimino-3-(n-propyl)-1,3-thiazolidine-4-yl]-N-(4-chlorophenyl)-acetamide hydrochloride] came in with a melting point of 206.8 °C. Further, the inhibition at 10 µM in series [1] (setting [2]) came to 58.5%.

`CC(C)c1ccc(N=C2SCC(CC(=O)Nc3ccc(Cl)cc3F)N2C)cc1.Cl` (centres unmarked) [KHG23071, [2-(4-isopropylphenylimino)-3-methyl-1,3-thiazolidine-4-yl]-N-(4-chloro-2-fluorophenyl)-acetamide hydrochloride] showed a melting point of 237 to 238 °C. Also, in series [1] (10 μM, FDSS (% inhibition), comparative compounds where R6 is a phenyl group, read-out: FDSS), the inhibition at 10 µM was 15.5%.

Compound `Cc1ccc(NC(=O)CC2CSC(=NC34CC5CC(CC(C5)C3)C4)N2C)c(Cl)c1.Cl` (centres unmarked) [KHG24418, [2-(1-adamantyl)imino-3-methyl-1,3-thiazolidine-4-yl]-N-(2-chloro-4-methylphenyl)-acetamide hydrochloride] returned a melting point of 234 to 236 °C. Moreover, the inhibition at 10 µM in series [1] (setting [2]) stood at 56.9%.

Turning to `CN1C(=NC2CCCC2)SCC1CC(=O)Nc1cc(Cl)cc(Cl)c1.Cl` (centres unmarked) [KHG24100, (2-cyclopentylimino-3-methyl-1,3-thiazolidine-4-yl)-N-(3,5-dichlorophenyl)-acetamide hydrochloride], the melting point was in the range of 231 to 232.5 °C. For the same compound, the inhibition at 10 µM in series [1] (setting [2]) stood at 60.8%.

As to `CCCCN1C(=NC23CC4CC(CC(C4)C2)C3)SCC1CC(=O)Nc1ccc(F)cc1.Cl` (centres unmarked) [KHG24780, [2-(1-adamantylimino)-3-(n-butyl)-1,3-thiazolidine-4-yl]-N-(4-fluorophenyl)-acetamide hydrochloride], the melting point came to 163 °C. The inhibition at 10 µM in series [1] (10 μM, HEK293 cells stably expressing α1G T-type calcium channel and Kir2.1, compounds of the examples, read-out: FDSS (% inhibition)/10uM) was 55.3%.

With `CC(C)c1ccc(NC(=O)CC2C(C)SC(=NC3CCCCCC3)N2C)cc1.Cl` (centres unmarked) [KHG24519, (2-cycloheptylimino-3,5-dimethyl-1,3-thiazolidine-4-yl)-N-(4-isopropylphenyl)-acetamide hydrochloride], the melting point is 260 to 262 °C. The inhibition at 10 µM in series [1] (setting [2]) is 55.7%.

As for `CC1SC(=NC2CCCCCC2)N(C)C1CC(=O)Nc1cccc(F)c1.Cl` (centres unmarked) [KHG24641, (2-cycloheptylimino-3,5-dimethyl-1,3-thiazolidine-4-yl)-N-(3-fluorophenyl)-acetamide hydrochloride], the melting point was in the range of 247 to 249 °C. For the same compound, the inhibition at 10 µM in series [1] (setting [2]) worked out at 63.5%.

For the compound `Cc1ccc(NC(=O)CC2CSC(=NC3CCCCC3)N2C2CCCCC2)cc1.Cl` (centres unmarked) [KHG24313, (2-cyclohexylimino-3-cyclohexyl-1,3-thiazolidine-4-yl)-N-(4-methylphenyl)-acetamide hydrochloride], the inhibition at 10 µM in series [1] (setting [2]) is 31%.

With `Cl.O=C(CC1CSC(=NC2CCCCC2)N1C1CCCCC1)Nc1cc(C(F)(F)F)cc(C(F)(F)F)c1` (centres unmarked) [KHG24307, (2-cyclohexylimino-3-cyclohexyl-1,3-thiazolidine-4-yl)-N-(3,5-ditrifluoromethylphenyl)-acetamide hydrochloride], the inhibition at 10 µM in series [1] (setting [2]) stood at 43.9%.

`CN1C(=NC23CC4CC(CC(C4)C2)C3)SCC1CC(=O)Nc1ccc(Cl)cc1F.Cl` (centres unmarked) [KHG24411]: the “FDSS (% inhibition)/10uM” value in series [1] (10 μM, HEK293 cells stably expressing α1G T-type calcium channel and Kir2.1, compounds of the examples) came to 62.67%.
